Entries after “also recorded” stand apart in the source; their conditions may differ.
What was measured:
Jurkat cells = assay: Cell viability assay (CELLTITER 96 AQUEOUS One) in Jurkat cells; type: cell-based, human; settings: NU7441 at varying concentrations, 48 hours
Description: Cell Culture: Human peripheral blood mononuclear cells (PBMC,) and Jurkat cells were purchased from ATCC (PCS-800-011, Manassas, VA). Cells were maintained at 37° C. in a humidified atmosphere composed of 5% CO2. Jurkat cells were cultured in RPMI 1640 medium which was supplemented with 10% FCS and human PBMC was cultured in RPMI 1640 medium which was supplemented with 10% FCS and pen/strep. Both Jurkat cells and PBMC were stimulated with PHA (50 ng/mL) and PMA (1 μg/mL) for 24 hours prior to harvesting for IL-2 detection or 6 hours prior for western blot analysis. The NU7441 DNA-PKcs inhibitor was added at varying concentrations at the time of stimulation. Cell viability assay: Cell viability assay was performed using Promega CELLTITER 96 AQUEOUS One Solution Cell Proliferation Assay (Madison, WI) and following the manufacturer's protocol. Briefly, 100 μL of PBMC or Jurkat cells were plated in a 96-well plate and treated with various concentration of NU7441 for 48 hours. CELLTITER solution (20 μL/100 μL of cell suspension) was added to the cells and the plate was incubated for 3 hours at 37° C. and the absorbance at 490 nm was recorded using SynergyHTX (BioTek, Winooski, VT) plate reader.

calcineurin = assay: Calcineurin Cellular Activity Assay in Jurkat cell lysates; type: cell-based, human; settings: Jurkat activated with PMA+PHA, NU7441 2.5 µM
Excerpt: Detection of calcineurin and mTOR activities: Calcineurin phosphatase activity was detected by Calcineurin Cellular Activity Assay Kit from Millipore (Billerica, MA) and mTOR signaling was detected by Calcium Detection Kit from Abcam (Cambridge, MA). The manufacturer's protocols were followed. Briefly, Jurkat cells (2 million cells/mL) were lysed using lysis buffer. For calcineurin activity, the cell lysates were desalted by gel filtration to remove free phosphates before the assay and were subjected to calcineurin activity assay. The absorbance of each sample was read at 620 nm using the plate reader. For mTOR ELISA assay, the cell lysates were added to each well and antibody against phosphorylated mTOR at serine 2448 was used to detect the activity of mTOR signaling. The absorbance of each sample was read at 450 nm using the plate reader.

Th17 T cells = assay: qPCR on T cell markers, Th17 differentiation of naïve CD4+ T cells; type: cell-based; settings: naïve CD4+ T cells from mouse spleens
Description: qPCR on T cell markers: Naïve CD4+ T cells were isolated by standard methods from the spleens of Balbc mice. T cells were grown in culture and treated with cytokines specific for differentiate into Th1 and Th17 subtypes. Additionally, T cells were cultured with NU7441 and FK506. qPCR was performed looking at the following markers: Batf3, RORyt, IL17, IL22, TGFBeta, Lymphotoxin, T-Bet.

IL-2 [1] = assay: Secreted IL-2 ELISA, Jurkat cells stimulated with PMA+PHA; type: cell-based, human; settings: for level of IL-2: PMA+PHA 24 hour stimulation
Description: Cell Culture: Human peripheral blood mononuclear cells (PBMC,) and Jurkat cells were purchased from ATCC (PCS-800-011, Manassas, VA). Cells were maintained at 37° C. in a humidified atmosphere composed of 5% CO2. Jurkat cells were cultured in RPMI 1640 medium which was supplemented with 10% FCS and human PBMC was cultured in RPMI 1640 medium which was supplemented with 10% FCS and pen/strep. […] The NU7441 DNA-PKcs inhibitor was added at varying concentrations at the time of stimulation.
Detection of secreted IL-2: Secreted IL-2 was detected by Human IL-2 ELISA Kit from Thermo Scientific (Waltham, MA). The manufacturer's protocol was followed. […] Jurkat cells stimulated with the anti-CD28/CD3 dynabeads were done so according to the manufacturer's protocol at a 1:1 ratio for 24 hours prior to harvesting. After stimulation, supernatant samples of Jurkat cells or PBMCs (2 million cells/mL) were collected and diluted 10 times before the assay. IL-2 standards and samples (50 μL) and Biotinylated antibody reagents (50 μL) were added to each well and the plate was incubated for 3 hours at room temperature. The plate was washed 3 times and 100 μL of Streptavidin-HRP solution was added. After 30 minutes of incubation at room temperature, the plate was washed 3 times. TMB substrate (100 μL) was added and incubated for 30 minutes in the dark at room temperature. Stop solution was added and the absorbance of each well was read at 450 nm using the plate reader.

Ca^2+ = assay: Calcium ion measurement in Jurkat cell lysates; type: cell-based, human; settings: Jurkat cell lysates following activation with PMA+PHA
Description: Measurements of calcium ions: Intracellular concentration of calcium ions was measured by Calcium Detection Assay Kit from Abcam (Cambridge, MA). The manufacturer's protocols were followed. Briefly, Jurkat cells (2 million cells/mL) were lysed using cold PBS with 0.1% NP-40. The cell lysates were diluted 10 times before use. After following the assay protocol, the absorbance of each sample was read at 575 nm using the plate reader.

IL-2 [2] = assay: Secreted IL-2 ELISA, PBMCs stimulated with PHA+PMA; type: cell-based, human; settings: PBMC, activation with PMA+PHA
Description: Cell Culture: Human peripheral blood mononuclear cells (PBMC,) and Jurkat cells were purchased from ATCC (PCS-800-011, Manassas, VA). Cells were maintained at 37° C. in a humidified atmosphere composed of 5% CO2. Jurkat cells were cultured in RPMI 1640 medium which was supplemented with 10% FCS and human PBMC was cultured in RPMI 1640 medium which was supplemented with 10% FCS and pen/strep. Both Jurkat cells and PBMC were stimulated with PHA (50 ng/mL) and PMA (1 μg/mL) for 24 hours prior to harvesting for IL-2 detection or 6 hours prior for western blot analysis. The NU7441 DNA-PKcs inhibitor was added at varying concentrations at the time of stimulation. Detection of secreted IL-2: Secreted IL-2 was detected by Human IL-2 ELISA Kit from Thermo Scientific (Waltham, MA). The manufacturer's protocol was followed. Prior to harvesting, cells were treated with PHA (50 ng/ml) and PMA (1 μg/mL) for 24 hours with or without the NU7441 inhibitor. Jurkat cells stimulated with the anti-CD28/CD3 dynabeads were done so according to the manufacturer's protocol at a 1:1 ratio for 24 hours prior to harvesting. After stimulation, supernatant samples of Jurkat cells or PBMCs (2 million cells/mL) were collected and diluted 10 times before the assay. […] Stop solution was added and the absorbance of each well was read at 450 nm using the plate reader.

O=c1cc(N2CCOCC2)oc2c(-c3cccc4c3sc3ccccc34)cccc12 [NU7441]
viability of Jurkat cells (Jurkat cells): did not alter the viability; also recorded: no significant reduction in viability | calcineurin phosphatase activity (calcineurin): significantly inhibited; also recorded: significant reduction in calcineurin activity | Th17 differentiation (markers Batf3, RoRyt, IL22, TGFBeta, IL17) (Th17 T cells): suppressing a Th17 environment | IL-2 secretion (IL-2 [1]; PMA (50 ng/ml)+PHA (1 μg/mL), 24 hours, concentration not stated (FIG. 1B)): significantly blocked IL-2 secretion | level of IL-2 (IL-2 [1]; 2.5 µM NU7441): significantly decreased | level of IL-2 (IL-2 [1]; 5 μM NU7441): further decreased | concentration of Ca^2+ ions (Ca^2+): no change; also recorded: not affected | level of IL-2 produced (IL-2 [2]): significantly reduce IL-2 production
